Results taken from patent publication US20050032784A1, “Combination drug therapy for treating hypertension” (University of Florida Research Foundation, Inc., priority 2003, published 2005).

How the values were obtained:
[1] = tested on: CAD patients with hypertension; assay: INVEST trial: new diagnosis of diabetes; assay type: in vivo; details: for HR of developing diabetes: vs NCAS not taking trandolapril or hydrochlorothiazide; for Effect of add-on medication on risk of diabetes: preliminary analyses adjusted for 5 baseline covariates and average daily dose
Excerpt: The primary outcome was the first occurrence of death (all-cause), nonfatal MI, or nonfatal stroke by intention-to-treat analysis. The MI and stroke definitions are detailed on the INVEST Web site. These 3 components individually were the main secondary outcomes. Additional outcomes included time to most serious event (ranked from death as most serious, to MI, to stroke as least serious), cardiovascular death (definite or presumed), angina, cardiovascular hospitalizations, blood pressure control, cancer, Alzheimer disease, Parkinson disease, and gastrointestinal tract bleeding. Shortly after the study started, new information became available on the potential for ACE inhibitors to prevent or delay the onset of diabetes. Accordingly, at the recommendation of the independent data safety and monitoring committee, new diagnosis of diabetes was added as an outcome early in the recruitment phase of the study.
Of the 8098 CAS patients without diabetes at entry, 569 (7.03%) were diagnosed as having diabetes during follow-up. Of the 8078 NCAS patients without diabetes at entry, 665 (8.23%) were diagnosed as having diabetes during follow-up (RR, 0.85; 95% CI, 0.77-0.95). Patients in the CAS group were also less likely to die or develop diabetes compared with patients in the NCAS group (1050 [12.97%] vs 1177 [14.57%]; RR, 0.89; 95% CI, 0.82-0.96) and less likely to have an event in the primary outcome cluster or develop diabetes (1185 [14.63%] vs 1313 [16.25%]; RR, 0.90; 95% CI, 0.84-0.97). To explore possible explanations for reduced risk of diabetes, we conducted preliminary analyses adjusting for the 5 pre-specified baseline covariates (age, race, sex, prior MI, and prior heart failure) and included factors for average daily dose of add-on medication (trandolapril and/or hydrochlorothiazide). […] A 2-mg dose of trandolapril was associated with a HR of 0.86 (95% CI, 0.74-1.00) and a 4-mg dose was associated with a HR of 0.77 (95% CI, 0.62-0.96). In the NCAS group, a 2-mg dose of trandolapril was associated with a HR of 0.99 (95% CI, 0.90-1.08) and a 4-mg dose was associated with a HR of 0.98 (95% CI, 0.82-1.18). […] Compared with those in the NCAS group not taking either trandolapril or hydrochlorothiazide, the addition of 12.5 mg of hydrochlorothiazide was associated with a HR of 1.17 (95% CI, 1.09-1.25) and 25 mg of hydrochlorothiazide was associated with a HR of 1.36 (95% CI, 1.18-1.57).

[2] = tested on: hypertensive patients randomized to the calcium antagonist strategy; assay: INVEST subanalysis: BP reduction by addition of HCTZ to verapamil SR/trandolapril; assay type: in vivo
Method: Subanalysis Design: INVEST afforded an opportunity to analyze unique and specific combinations of antihypertensive drugs due to the data accumulated for prescription date, drug, regimen, and dose. One subanalysis was performed to evaluate the incremental benefit of BP reduction by the addition of HCTZ to various dose combinations of verapamil SR and trandolapril in patients randomized to the calcium antagonist strategy. […]
Patients who received the verapamil SR/trandolapril combination as their first randomized drug prescription in INVEST, and who received no other drug prescription or gap in medication until their first HCTZ prescription added to the initial verapamil SR/trandolapril combination dose, were selected for this subgroup analysis. […] Summary statistics for change from baseline for SBP and DBP to the last observation at each dose level for both the verapamil SR/trandolapril dual combination and the verapamil SR/trandolapril/HCTZ triple combination were analyzed. […] In this subanalysis the incremental effect of HCTZ on BP reduction was evaluated for any dose of HCTZ.

[3] = Group 1, added to verapamil SR/trandolapril 180/2 mg
[4] = Group 2, added to verapamil SR/trandolapril 240/2 mg
[5] = Group 3, added to verapamil SR/trandolapril 240/4 mg

Row | Structure (SMILES) | HR of developing diabetes ([1]; 2-mg dose, CAS group) | HR of developing diabetes ([1]; 2-mg dose, NCAS group) | HR of developing diabetes ([1]; 4-mg dose, CAS group) | HR of developing diabetes ([1]; 4-mg dose, NCAS group) | Effect of add-on medication on risk of diabetes [1] | HR of developing diabetes ([1]; 25 mg, CAS group) | HR of developing diabetes ([1]; 25 mg, NCAS group) | HR of developing diabetes ([1]; addition of 12.5 mg, CAS group) | HR of developing diabetes ([1]; addition of 12.5 mg, NCAS group) | Decrease of mean diastolic BP with the addition of HCTZ [2, 3] [mm Hg] | Decrease of mean systolic BP after the addition of HCTZ [2, 3] [mm Hg] | Decrease of mean diastolic BP with the addition of HCTZ [2, 4] [mm Hg] | Decrease of mean systolic BP after the addition of HCTZ [2, 4] [mm Hg] | Decrease of mean diastolic BP with the addition of HCTZ [2, 5] [mm Hg] | Decrease of mean systolic BP after the addition of HCTZ [2, 5] [mm Hg] | Incremental BP reduction with addition of HCTZ ([2]; each verapamil SR/trandolapril combination group, listed as HCTZ)
1 | CCOC(=O)[C@H](CCc1ccccc1)N[C@@H](C)C(=O)N1[C@H](C(=O)O)C[C@H]2CCCC[C@@H]21 [trandolapril] | 0.86 | 0.99 | 0.77 | 0.98 | appeared to confer a protective effect in the CAS group |  |  |  |  |  |  |  |  |  |  | 
2 | NS(=O)(=O)c1cc2c(cc1Cl)NCNS2(=O)=O [hydrochlorothiazide] |  |  |  |  | non-statistically significant increased risk of diabetes | 1.28 | 1.36 | 1.11 | 1.17 | 1.1 | 7.1 | 4.2 | 6.5 | 2.3 | 3.2 | clinically significant, incremental BP reduction
